According to patent US20190210996A1, “NOVEL COMPOUNDS” (GLAXOSMITHKLINE INTELLECTUAL PROPERTY DEVELOPMENT LIMITED, priority 2016, published 2019):

Legend:
Type in all cases: cell-based
[1] = biological target: T1, AURKA (Homo sapiens, UniProt O14965); assay: Expression proteomics in THP-1 cells: AURKA protein level
T1 construct: endogenous in cells; host or cells: THP-1
T1 sequence (O14965 1-403): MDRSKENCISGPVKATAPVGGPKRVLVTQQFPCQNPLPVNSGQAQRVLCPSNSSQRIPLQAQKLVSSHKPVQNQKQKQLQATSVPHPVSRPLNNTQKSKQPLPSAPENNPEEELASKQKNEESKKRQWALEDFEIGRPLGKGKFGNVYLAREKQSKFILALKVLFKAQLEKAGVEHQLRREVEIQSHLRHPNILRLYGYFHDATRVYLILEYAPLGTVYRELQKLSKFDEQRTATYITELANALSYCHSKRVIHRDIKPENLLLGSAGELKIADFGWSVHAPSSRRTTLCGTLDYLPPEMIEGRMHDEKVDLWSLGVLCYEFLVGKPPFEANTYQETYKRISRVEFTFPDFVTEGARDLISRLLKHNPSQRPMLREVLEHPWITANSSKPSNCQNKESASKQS
Experimental: (§1) THP-1 cells were seeded at a concentration of 3×10^6 cells in T175 flasks with 60 mL growth medium (RPMI1640+10% FBS). […] of a 10× compound solution prepared in growth medium (DMSO), CEREBLON_PROTAC) was added and the cells were treated for the indicated time points (6 or 24 h) at 37° C., 5% CO2. For harvesting the cells were collected into falcon tubes on ice, centrifuged and washed twice in cold PBS (Life technologies). After the last washing step the supernatant was removed and the pellets were snap-frozen in liquid N2 and stored at −80° C. and lysed in 2% SDS for 3 min at 95° C. in a thermomixer (Thermo Fisher Scientific), followed by digestion of DNA with Benzonase at 37° C. for 1.5 h. Lysate was cleared by centrifugation an protein concentration in supernatant was determined by BCA assay.
(§2) Leukemia 25, 89-100 (2011).
(§3) Samples were dried in vacuo and resuspended in 0.05% trifluoroacetic acid in water. Of the sample, 50% was injected into an Ultimate3000 nanoRLSC (Dionex, Sunnyvale, Calif.) coupled to a Q Exactive HF (Thermo Fisher Scientific). Peptides were trapped on a 5 mm×300 μm C18 column (Pepmap100, 5 μm, 300 Å, Thermo Fisher Scientific) in water with 0.05% TFA at 60° C. Separation was performed on custom 50 cm×[…] (ID) reversed-phase columns (Reprosil) at 55° C. Gradient elution was performed from 2% acetonitrile to 40% acetonitrile in 0.1% formic acid and 3.5% DMSO over 2 hours. Samples were online injected into Q-Exactive HF mass spectrometers operating with a data-dependent top 10 method. MS spectra were acquired by using 60.000 resolution and an ion target of 3×10^6. Higher energy collisional dissociation (HCD) scans were performed with 35% NCE at 30.000 resolution (at m/z 200), and the ion target settings was set to 2×10^5 so as to avoid coalescence (Werner, T. et al. Ion Coalescence of Neutron Encoded TMT 10-Plex Reporter Ions. Anal. Chem. 86, 3594-3601 (2014).
(§4) The first search was performed with 30 parts per million mass tolerance for peptide precursors and 30 mD (HCD) mass tolerance for fragment ions followed by a final search using recalibrated data with a 10 parts per million mass tolerance for peptide precursors and 20 mD (HCD) mass tolerance for fragment ions. Carbamidomethylation of cysteine residues and TMT modification of lysine residues were set as fixed modifications and methionine oxidation, and N-terminal acetylation of proteins and TMT modification of peptide N-termini were set as variable modifications. […]
(§5) Nat Biotech 29, 255-265 (2011). this measure is referred to as ion area Savitski, M. M. et al. Delayed Fragmentation and Optimized Isolation Width Settings for Improvement of Protein Identification and Accuracy of Isobaric Mass Tag Quantification on Orbitrap-Type Mass Spectrometers. […]

[2] = biological target: T2, TEC (Homo sapiens, UniProt P42680); assay: Expression proteomics in THP-1 cells: TEC protein level
T2 construct: endogenous in cells; host or cells: THP-1
T2 sequence (P42680 1-631): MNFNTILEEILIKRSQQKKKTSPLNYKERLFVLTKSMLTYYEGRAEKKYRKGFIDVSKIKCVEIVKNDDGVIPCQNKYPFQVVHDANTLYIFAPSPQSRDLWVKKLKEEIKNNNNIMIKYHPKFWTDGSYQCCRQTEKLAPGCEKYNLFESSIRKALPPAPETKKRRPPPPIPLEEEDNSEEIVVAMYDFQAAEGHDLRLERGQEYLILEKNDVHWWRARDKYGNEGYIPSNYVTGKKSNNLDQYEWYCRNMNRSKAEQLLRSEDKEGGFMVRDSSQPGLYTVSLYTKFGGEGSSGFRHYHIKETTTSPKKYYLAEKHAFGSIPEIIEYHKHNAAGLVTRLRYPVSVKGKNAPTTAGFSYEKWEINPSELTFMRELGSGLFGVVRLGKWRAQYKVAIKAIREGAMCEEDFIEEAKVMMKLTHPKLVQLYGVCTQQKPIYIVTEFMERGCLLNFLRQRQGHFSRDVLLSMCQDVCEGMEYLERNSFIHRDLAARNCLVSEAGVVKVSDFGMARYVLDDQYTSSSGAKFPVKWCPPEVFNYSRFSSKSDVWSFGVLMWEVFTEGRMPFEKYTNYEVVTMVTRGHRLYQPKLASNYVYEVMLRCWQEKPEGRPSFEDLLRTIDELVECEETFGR
Experimental: as §1, §2, §3, §4, §5

[3] = biological target: T3, BTK (Homo sapiens, UniProt Q06187); assay: Expression proteomics in THP-1 cells: BTK protein level
T3 construct: endogenous in cells; host or cells: THP-1
Experimental: as §1, §2, §3, §4, §5

[4] = biological target: T4, RPS6KA3 (Homo sapiens, UniProt P51812); assay: Expression proteomics in THP-1 cells: RPS6KA3 protein level; settings: RPS6KA3, THP-1 cells
T4 construct: endogenous in cells; host or cells: THP-1
Experimental: as §1, §2, §3, §4, §5

T4 sequence (P51812 whole entry): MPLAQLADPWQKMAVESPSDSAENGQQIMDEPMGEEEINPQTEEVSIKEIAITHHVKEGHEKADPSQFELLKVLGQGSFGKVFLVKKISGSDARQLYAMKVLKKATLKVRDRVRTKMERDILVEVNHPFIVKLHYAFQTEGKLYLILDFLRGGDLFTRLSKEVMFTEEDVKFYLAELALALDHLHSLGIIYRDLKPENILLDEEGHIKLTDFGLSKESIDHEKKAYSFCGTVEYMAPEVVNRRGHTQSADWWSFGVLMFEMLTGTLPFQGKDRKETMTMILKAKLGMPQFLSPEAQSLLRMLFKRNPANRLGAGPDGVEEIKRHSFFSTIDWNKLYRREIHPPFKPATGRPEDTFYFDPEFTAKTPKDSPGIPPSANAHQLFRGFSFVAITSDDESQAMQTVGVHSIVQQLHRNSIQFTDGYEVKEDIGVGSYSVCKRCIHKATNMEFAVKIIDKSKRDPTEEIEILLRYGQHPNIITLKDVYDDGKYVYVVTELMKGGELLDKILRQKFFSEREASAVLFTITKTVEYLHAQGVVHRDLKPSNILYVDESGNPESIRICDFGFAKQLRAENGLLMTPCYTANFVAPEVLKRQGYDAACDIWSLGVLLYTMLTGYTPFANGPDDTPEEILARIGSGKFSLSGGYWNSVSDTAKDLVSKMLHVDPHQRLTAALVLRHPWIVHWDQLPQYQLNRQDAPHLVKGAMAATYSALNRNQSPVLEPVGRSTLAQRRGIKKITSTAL
T3 sequence (Q06187 whole entry): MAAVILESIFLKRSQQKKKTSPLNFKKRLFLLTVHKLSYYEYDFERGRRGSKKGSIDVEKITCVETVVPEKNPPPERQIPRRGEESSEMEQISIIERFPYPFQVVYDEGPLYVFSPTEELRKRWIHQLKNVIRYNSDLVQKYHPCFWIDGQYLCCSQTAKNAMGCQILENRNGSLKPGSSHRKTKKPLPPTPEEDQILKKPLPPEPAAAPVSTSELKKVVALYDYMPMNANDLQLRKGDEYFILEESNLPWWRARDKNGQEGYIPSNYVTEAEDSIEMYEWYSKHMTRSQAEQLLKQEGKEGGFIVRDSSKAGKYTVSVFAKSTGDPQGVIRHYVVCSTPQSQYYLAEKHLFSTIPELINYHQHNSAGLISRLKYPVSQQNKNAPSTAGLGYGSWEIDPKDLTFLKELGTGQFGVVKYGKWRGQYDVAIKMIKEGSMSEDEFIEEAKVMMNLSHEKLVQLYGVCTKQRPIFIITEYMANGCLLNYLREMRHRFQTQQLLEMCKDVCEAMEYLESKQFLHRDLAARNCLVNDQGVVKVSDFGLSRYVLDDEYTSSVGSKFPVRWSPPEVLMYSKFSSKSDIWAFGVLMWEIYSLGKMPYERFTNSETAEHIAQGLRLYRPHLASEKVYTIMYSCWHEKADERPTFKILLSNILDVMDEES

log2 rel. fc. to vehicle control ([1]; 24 h 0.1 μM, n = 1): −1.45 | log2 rel. fc. to vehicle control ([1]; 24 h 0.1 μM, n = 2): −1.00 | log2 rel. fc. to vehicle control ([1]; 24 h 1 μM, n = 1): −2.10 | log2 rel. fc. to vehicle control ([1]; 24 h 1 μM, n = 2): −1.93 | log2 rel. fc. to vehicle control ([2]; 24 h 0.1 μM, n = 1): −1.83 | log2 rel. fc. to vehicle control ([2]; 24 h 0.1 μM, n = 2): −2.38 | log2 rel. fc. to vehicle control ([2]; 24 h 1 μM, n = 1): −1.74 | log2 rel. fc. to vehicle control ([2]; 24 h 1 μM, n = 2): −1.94 | log2 rel. fc. to vehicle control ([3]; 24 h 0.1 μM, n = 1): −1.65 | log2 rel. fc. to vehicle control ([3]; 24 h 0.1 μM, n = 2): −1.67 | log2 rel. fc. to vehicle control ([3]; 24 h 1 μM, n = 1): −2.02 | log2 rel. fc. to vehicle control ([3]; 24 h 1 μM, n = 2): −1.86 | log2 rel. fc. to vehicle control ([4]; 24 h 0.1 μM, n = 1): −0.74 | log2 rel. fc. to vehicle control ([4]; 24 h 0.1 μM, n = 2): −0.72 | log2 rel. fc. to vehicle control ([4]; 24 h 1 μM, n = 1): −1.12 | log2 rel. fc. to vehicle control ([4]; 24 h 1 μM, n = 2): −1.11
SMILES: CNC(=O)c1ccccc1Nc1nc(Nc2ccc(N3CCN(CCOCCOCCOCCOCC(=O)Nc4cccc5c4CN(C4CCC(=O)NC4=O)C5=O)CC3)cc2)ncc1Cl.O=CO (stereo not shown) [CEREBLON_PROTAC, 14-(4-(4-((5-Chloro-4-((2-(methylcarbamoyl)phenyl)amino)pyrimidin-2-yl)amino)phenyl)piperazin-1-yl)-N-(2-(2,6-dioxopiperidin-3-yl)-1-oxoisoindolin-4-yl)-3,6,9,12-tetraoxatetradecan-1-amide formate]
